Measurements reported in US20070244103A1, “Novel Compounds Having an Anti-Bacterial Activity” (Morphochem Aktiengesellschaft Fur Kombinatorische Chemie, priority 2004, published 2007).

Test: MIC of the examples against various organisms
Format: cell-based
Details: against at least two of the above organisms (12-strain panel)
Experimental: The MIC (μg/ml) of the examples against various organisms was determined: A. baumannii ATCC19606, E. cloacae ATCC23355, E. coli ATCC25922, K. pneumoniae ATCC27736, P. mirabilis ATCC29906, P. aeruginosa ATCC27853, S. maltophilia ATCC13637, S. aureus ATCC43300, S. epidermidis ATCC14990, S. haemolyticus ATCC29970, E. faecalis ATCC29212 and E. faecium ATC19434.

| MIC | Compound |
| --- | --- |
| ≤ 2 µg/mL | COc1ccc2ncc(Cl)c(C(O)CN3CCCC(CNC/C=C/c4ccccc4)C3)c2c1 (single isomer, unassigned) [Example 69, 1-(3-Chloro-6-methoxy-quinolin-4-yl)-2-{3-[((E)-3-phenyl-allylamino)-methyl]-piperidin-1-yl}-ethanol] |
| ≤ 2 µg/mL | COc1ccc2ncc(Cl)c(C(O)CN3CCCC(CNCc4ccc5nsnc5c4)C3)c2c1 (single isomer, unassigned) [Example 70, 2-(3-{[(Benzo[1,2,5]thiadiazol-5-ylmethyl)-amino]-methyl}-piperidin-1-yl)-1-(3-chloro-6-methoxy-quinolin-4-yl)-ethanol] |
| ≤ 2 µg/mL | COc1ccc2ncc(Cl)c(C(O)CN3CCOC(CNCc4ccc5c(c4)NC(=O)CO5)C3)c2c1 (single isomer, unassigned) [Example 71, 6-[({4-[2-(3-Chloro-6-methoxy-quinolin-4-yl)-2-hydroxy-ethyl]-morpholin-2-ylmethyl}-amino)-methyl]-4H-benzo[1,4]oxazin-3-one] |
| ≤ 2 µg/mL | COc1ccc2ncc(Cl)c(C(O)CN3CCOC(CNCc4ccc5c(c4)OCO5)C3)c2c1 (single isomer, unassigned) [Example 72, 2-(2-{[(Benzo[1,3]dioxol-5-ylmethyl)-amino]-methyl}-morpholin-4-yl)-1-(3-chloro-6-methoxy-quinolin-4-yl)-ethanol] |
| ≤ 2 µg/mL | COc1ccc2ncc(Cl)c(C(O)CN3CCOC(CNCc4ccc5c(c4)OCCO5)C3)c2c1 (single isomer, unassigned) [Example 73, 1-(3-Chloro-6-methoxy-quinolin-4-yl)-2-(2-{[(2,3-dihydro-benzo[1,4]dioxin-6-ylmethyl)-amino]-methyl}-morpholin-4-yl)-ethanol] |
| ≤ 2 µg/mL | COc1ccc2ncc(Cl)c(C(O)CN3CCOC(CNCc4ccc5nsnc5c4)C3)c2c1 (single isomer, unassigned) [Example 74, 2-(2-{[(Benzo[1,2,5]thiadiazol-5-ylmethyl)-amino]-methyl}-morpholin-4-yl)-1-(3-chloro-6-methoxy-quinolin-4-yl)-ethanol] |
| ≤ 2 µg/mL | COc1ccc2ncc(Cl)c(C(O)CN3CCOC(CNCc4cc5c(cc4F)SCC(=O)N5)C3)c2c1 (single isomer, unassigned) [Example 75, 6-[({4-[2-(3-Chloro-6-methoxy-quinolin-4-yl)-2-hydroxy-ethyl]-morpholin-2-ylmethyl}-amino)-methyl]-7-fluoro-4H-benzo[1,4]thiazin-3-one] |
| ≤ 2 µg/mL | COc1ccc2ncc(Cl)c(C(O)CN3CCOC(CNCc4ccc5c(c4)NC(=O)CS5)C3)c2c1 (single isomer, unassigned) [Example 76, 6-[({4-[2-(3-Chloro-6-methoxy-quinolin-4-yl)-2-hydroxy-ethyl]-morpholin-2-ylmethyl}-amino)-methyl]-4H-benzo[1,4]thiazin-3-one] |
| ≤ 2 µg/mL | COc1ccc2ncc(Cl)c(C(O)CN3CCOC(CNC/C=C/c4ccccc4)C3)c2c1 (single isomer, unassigned) [Example 77, 1-(3-Chloro-6-methoxy-quinolin-4-yl)-2-{2-[((E)-3-phenyl-allylamino)-methyl]-morpholin-4-yl}-ethanol] |
| ≤ 2 µg/mL | COc1ccc2nccc(NC(=O)C3CCCC(CNCc4ccc5c(c4)NC(=O)CO5)C3)c2n1 (stereo not drawn) [Example 15, 3-{[(3-Oxo-3,4-dihydro-2H-benzo[1,4]oxazin-6-ylmethyl)-amino]-methyl}-cyclohexanecarboxylic acid (6-methoxy-[1,5]-naphthyridin-4-yl)-amide] |
| ≤ 2 µg/mL | COc1ccc2nccc(NC(=O)C3CCCC(CNCc4ccc5c(c4)NC(=O)CS5)C3)c2n1 (stereo not drawn) [Example 16, 3-{[(3-Oxo-3,4-dihydro-2H-benzo[1,4]thiazin-6-ylmethyl)-amino]-methyl}-cyclohexanecarboxylic acid (6-methoxy-[1,5]-naphthyridin-4-yl)-amide] |
| ≤ 2 µg/mL | COc1ccc2nccc(NC(=O)C3CCCC(CNCc4ccc5c(n4)NC(=O)CS5)C3)c2n1 (stereo not drawn) [Example 17, 3-{[(3-Oxo-3,4-dihydro-2H-pyrido[3,2-b][1,4]thiazin-6-ylmethyl)-amino]-methyl}-cyclohexanecarboxylic acid (6-methoxy-[1,5]-naphthyridin-4-yl)-amide] |
| ≤ 2 µg/mL | COc1ccc2nccc(NC(=O)C3CCCC(CNCc4ccc5c(c4)OCCO5)C3)c2n1 (stereo not drawn) [Example 19, 3-{[(2,3-Dihydro-benzo[1,4]dioxin-6-ylmethyl)-amino]-methyl}-cyclohexanecarboxylic acid (6-methoxy-[1,5]-naphthyridin-4-yl)-amide] |
| ≤ 2 µg/mL | COc1ccc2nccc(NC(=O)C3CCCC(CNCc4ccc5nsnc5c4)C3)c2n1 (stereo not drawn) [Example 20, 3-{[(Benzo[1,2,5]thiadiazol-5-ylmethyl)-amino]-methyl}-cyclohexanecarboxylic acid (6-methoxy-[1,5]-naphthyridin-4-yl)-amide] |
| ≤ 2 µg/mL | COc1ccc2nccc(NC(=O)C3CCCC(CNC/C=C/c4ccccc4)C3)c2n1 (stereo not drawn) [Example 22, 3-[((E)-3-Phenyl-allylamino)-methyl]-cyclohexanecarboxylic acid (6-methoxy-[1,5]-naphthyridin-4-yl)-amide] |
| ≤ 2 µg/mL | COc1ccc2nccc(NC(=O)C3CCCC(CNCc4cc5c(cc4F)SCC(=O)N5)C3)c2n1 (stereo not drawn) [Example 24, 3-{[(7-Fluoro-3-oxo-3,4-dihydro-2H-benzo[1,4]thiazin-6-ylmethyl)-amino]-methyl}-cyclohexanecarboxylic acid (6-methoxy-[1,5]-naphthyridin-4-yl)-amide] |

| Compound | MIC |
| --- | --- |
| COc1ccc2ncc(Cl)c(C(O)CN3C4CCC3CC(NCc3ccc5c(c3)OCCO5)C4)c2n1 (stereo not drawn) [Example 25, 1-(3-Chloro-6-methoxy-[1,5]-naphthyridin-4-yl)-2-{3-[(2,3-dihydro-benzo[1,4]dioxin-6-ylmethyl)-amino]-8-aza-bicyclo[3.2.1]oct-8-yl}-ethanol] | ≤ 2 µg/mL |
| COc1ccc2ncc(Cl)c(C(O)CN3C4CCC3CC(NCc3ccc5nsnc5c3)C4)c2n1 (stereo not drawn) [Example 26, 2-{3-[(Benzo[1,2,5]thiadiazol-5-ylmethyl)-amino]-8-aza-bicyclo[3.2.1]oct-8-yl}-1-(3-chloro-6-methoxy-[1,5]-naphthyridin-4-yl)-ethanol] | ≤ 2 µg/mL |
| COc1ccc2ncc(Cl)c(C(O)CN3C4CCC3CC(NCc3ccc5c(c3)NC(=O)CO5)C4)c2n1 (stereo not drawn) [Example 27, 6-({8-[2-(3-Chloro-6-methoxy-[1,5]-naphthyridin-4-yl)-2-hydroxy-ethyl]-8-aza-bicyclo[3.2.1]oct-3-ylamino}-methyl)-4H-benzo[1,4]oxazin-3-one] | ≤ 2 µg/mL |
| COc1ccc2ncc(Cl)c(C(O)CN3C4CCC3CC(NCc3cc5c(cc3F)SCC(=O)N5)C4)c2n1 (stereo not drawn) [Example 28, 6-({8-[2-(3-Chloro-6-methoxy-[1,5]-naphthyridin-4-yl)-2-hydroxy-ethyl]-8-aza-bicyclo[3.2.1]oct-3-ylamino}-methyl)-7-fluoro-4H-benzo[1,4]thiazin-3-one] | ≤ 2 µg/mL |
| COc1ccc2ncc(Cl)c(C(O)CN3C4CCC3CC(NCc3ccc5c(c3)NC(=O)CS5)C4)c2n1 (stereo not drawn) [Example 29, 6-({8-[2-(3-Chloro-6-methoxy-[1,5]-naphthyridin-4-yl)-2-hydroxy-ethyl]-8-aza-bicyclo[3.2.1]oct-3-ylamino}-methyl)-4H-benzo[1,4]thiazin-3-one] | ≤ 2 µg/mL |
